The text below walks through data of patent publication US9114120B2, “Therapeutical method for the treatment of the Leber optic neuropathy” (SIGMA-TAU INDUSTRIE FARMACEUTICHE RIUNITE, S.P.A., priority 2010, dated 2015).

This assay has as its system Patients with LHON. The experiment in a line: Example 2: 12-month double blind, placebo controlled study of acetyl L-carnitine, visual acuity. In kind it is in vivo, human. The note with it: for Visual Acuity Change, Diff / Visual Acuity Recovery, Diff: ALC 2 g/day orally vs placebo. An excerpt: 30 Patients with LHON were enrolled. To be eligible, participants were required to meet the following inclusion criteria: both sexes, age ≧20 years and ≦60 years, diagnosis of Leber's optic neuropathy assessed by the presence of at least one of the three most common LHON pathogenic mutations (11778/ND4, 3460/ND1, 14484/ND6), and duration of disease greater than 2 years.
The study treatment trial was 12-month, double blind, placebo controlled with participants randomized to receive acetyl L-carnitine (2 g/day orally) or placebo.
The primary efficacy end point for the study was the best recovery in visual acuity in either eye measured by change in logMAR (logarithm of Minimal Angle of Resolution) in study eyes comparing the acetyl-L-carnitine treatment group with the placebo treatment control group 6 and 12 months after enrolment. Secondary efficacy outcome was the patients' best visual acuity at 6 and 12 months compared to best visual acuity at baseline.

As for `CC(=O)O[C@H](CC(=O)[O-])C[N+](C)(C)C` [ALC, acetyl-L-carnitine], where the note is “T6 (6 months), p < 0.05”, the “Visual Acuity Change, Diff” value was “Diff = 14 letters” and the “Visual Acuity Recovery, Diff” value is given as “Diff = 10 letters”. For the setting “T12 (12 months), p < 0.01”, the “Visual Acuity Change, Diff” value is reported as “Diff = 18 letters” and the “Visual Acuity Recovery, Diff” value was “Diff = 12 letters”. Where the note is “vs placebo, after 6 months (T6) and 12 months (T12)”, the “improvement of visual acuity recovery (in words)” value is “significant difference in improvement”. Further, the “visual acuity of eyes (in words)” value (vs placebo, both time points T6 and T12) was “significantly improved”.
